Test results published in patent publication US11696913B2, “Prolonged ectoparasite-controlling agent for animal” (MITSUI CHEMICALS AGRO, INC., priority 2017, dated 2023).

How the values were obtained:
[1] = system: Rhipicephalus (Boophilus) microplus; test: In vitro injection test with Rhipicephalus (Boophilus) microplus (BOOPMI Inj); details: 168 h, laid fertile eggs after 7 days, read-out: acaricidal activity; for pest or weed control at 0.00016 mg: dose 0.16 μg/animal injected; for pest or weed control at 0.0008 mg: dose 0.8 μg/animal injected; for pest or weed control at 32 ng: dose 0.032 μg/animal injected
Outline: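 Five engorged adult females each get a 1 μl abdominal injection of compound dissolved and diluted in DMSO. Kept 7 days at 28° C./85% rel. hum.; percent activity rates egg laying and egg fertility (0% all fertile, 100% none laid or infertile).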

[2] = system: Dermacentor variabilis; test: In vitro contact test with adult hard ticks (Dermacentor variabilis); details: read-out: acaricidal activity; for pest or weed control at 0.2 µg/cm2, 0.2 µg/cm2: dose 0.2 μg/cm^2, 48 h; for pest or weed control at 1 µg/cm2, 1 µg/cm2: dose 1 μg/cm^2, 48 h
Outline: (§1)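 Acaricidal activity = % ticks dead or moribund after 48 h contact with acetone-deposited compound on vial walls (e.g., 900 ppm solution → 5 μg/cm^2). Ambient conditions for R. sanguineus, 21° C./85% rel. hum. for other species; heat challenge at 45-50° C. separated climbers from moribund ticks.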

[3] = system: Ctenocephalides felis; test: Ctenocephalides felis in-vitro feeding test with fleas (CTECFE oral); details: 48 hours, read-out: insecticidal feeding activity; for pest or weed control at 0.16 ppm: dose 0.16 ppm in citrated cattle blood; for pest or weed control at 0.8 ppm: dose 0.8 ppm in citrated cattle blood; for pest or weed control at 4 ppm: dose 4 ppm in citrated cattle blood; for pest or weed control at 0.032 ppm: dose 0.032 ppm in citrated cattle blood
Outline: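 Scored as percent fleas killed (0–100%) 48 hours after feeding began. Compound, dissolved in DMSO and diluted into citrated cattle blood, was offered via a parafilm membrane to roughly 20 adult male and female C. felis at about 37° C.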

[4] = system: Ctenocephalides felis; test: In vitro contact test with fleas; details: read-out: insecticidal activity; for pest or weed control at 0.2 µg/cm2, 0.2 µg/cm2: dose 0.2 μg/cm^2, dead or moribund fleas after 48 h; for pest or weed control at 1 µg/cm2, 1 µg/cm2: dose 1 μg/cm^2, dead or moribund fleas after 48 h; for pest or weed control at 0.04 µg/cm2, 0.04 µg/cm2: dose 0.04 μg/cm^2, dead or moribund fleas after 48 h
Outline: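 Activity is the percentage of fleas dead or moribund at 48 h, judged by immobility or uncoordinated movement after tapping. Tubes were coated by evaporating acetone solutions (900 ppm gives 5 μg/cm^2), then held 5-10 adult fleas of both sexes at room temperature and ambient humidity.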

[5] = system: Rhipicephalus sanguineus; test: In vitro contact test with adult hard ticks (Rhipicephalus sanguineus); details: read-out: acaricidal activity; for pest or weed control at 0.2 µg/cm2, 0.2 µg/cm2: dose 0.2 μg/cm^2, 48 h; for pest or weed control at 1 µg/cm2, 1 µg/cm2: dose 1 μg/cm^2, 48 h
Outline: as §1

[6] = system: Spodoptera litura; test: Insecticidal testing against common cutworm; type: in vivo; details: foliar, 144 h, concentration 100 ppm, cabbage leaf dip, second-stage larvae, after 6 days, read-out: pesticidal rate
Source text: Insecticidal Testing Against Common Cutworm (Spodoptera litura)

[7] = system: Laodelphax striatellus; test: Insecticidal testing against small brown planthopper; type: in vivo; details: 144 h, concentration 100 ppm, sprayed rice seedlings, after 6 days, read-out: pesticidal rate
Description: Insecticidal Testing Against Small Brown Planthopper (Laodelphax striatellus)
An additional test was carried out with 10 small brown planthoppers by preparing an acetone solution of the testing compound diluted to a predetermined concentration, spraying the solution onto rice seedlings and air drying the rice seedlings. The medicament was all used as received. The rice seedlings were placed in a constant-temperature room at 25° C., and the survival rate was investigated after 6 days. The test was carried out by means of one group of 10 pests.

[8] = system: Plutella xylostella; test: Insecticidal testing against diamondback moth; type: in vivo; details: foliar, 144 h, concentration 100 ppm, cabbage leaf dip, third-stage larvae, after 6 days, read-out: pesticidal rate
Source text: Insecticidal Testing Against Diamondback Moth (Plutella xylostella)

[9] = system: Amblyomma americanum; test: In vitro contact test with hard ticks (Amblyomma americanum nymphs); details: read-out: acaricidal activity; for pest or weed control at 1 µg/cm2, 1 µg/cm2: dose 1 μg/cm^2, 48 h
Outline: as §1

Q: `CN(C(=O)c1ccc(Cl)c(Cl)c1)c1cccc(C(=O)Nc2c(I)cc(C(F)(C(F)(F)F)C(F)(F)F)cc2C(F)(F)F)c1F` [Compound 44] was tested. Which pest or weed control at 0.00016 mg [1] did it give?
A: 100%

Q: And the pest or weed control at 0.0008 mg [1]?
A: 100%

Q: What about the pest or weed control at 0.2 µg/cm2, 0.2 µg/cm2 [2] of the same molecule?
A: 90%

Q: And the pest or weed control at 1 µg/cm2, 1 µg/cm2 [2]?
A: 90%

Q: What about the pest or weed control at 0.16 ppm [3] of the same molecule?
A: 95%

Q: What about the pest or weed control at 0.8 ppm [3] of the same molecule?
A: 95%

Q: And the pest or weed control at 4 ppm [3]?
A: 95%

Q: And the pest or weed control at 0.2 µg/cm2, 0.2 µg/cm2 [4]?
A: 95%

Q: And the pest or weed control at 1 µg/cm2, 1 µg/cm2 [4]?
A: 95%

Q: And the pest or weed control at 0.2 µg/cm2, 0.2 µg/cm2 [5]?
A: 90%

Q: And the pest or weed control at 1 µg/cm2, 1 µg/cm2 [5]?
A: 90%

Q: What about the pest or weed control at 100 ppm [6] of the same molecule?
A: ≥ 70%

Q: What about the pest or weed control at 100 ppm [7] of the same molecule?
A: ≥ 70%

Q: What about the pest or weed control at 100 ppm [8] of the same molecule?
A: ≥ 70%

Q: `CSc1ccc(C(=O)N(C)c2cccc(C(=O)Nc3c(I)cc(C(F)(C(F)(F)F)C(F)(F)F)cc3C(F)(F)F)c2F)cc1` [Compound 53] was tested. Which pest or weed control at 0.00016 mg [1] did it give?
A: 100%

Q: What about the pest or weed control at 0.0008 mg [1] of the same molecule?
A: 100%

Q: And the pest or weed control at 0.2 µg/cm2, 0.2 µg/cm2 [2]?
A: 90%

Q: What about the pest or weed control at 1 µg/cm2, 1 µg/cm2 [2] of the same molecule?
A: 90%

Q: What about the pest or weed control at 0.0064 ppm ([3]; dose 0.0064 ppm in citrated cattle blood) of the same molecule?
A: 95%

Q: And the pest or weed control at 0.032 ppm [3]?
A: 95%

Q: And the pest or weed control at 0.16 ppm [3]?
A: 95%

Q: What about the pest or weed control at 0.8 ppm [3] of the same molecule?
A: 95%

Q: What about the pest or weed control at 4 ppm [3] of the same molecule?
A: 95%

Q: What about the pest or weed control at 0.04 µg/cm2, 0.04 µg/cm2 [4] of the same molecule?
A: 95%

Q: What about the pest or weed control at 0.2 µg/cm2, 0.2 µg/cm2 [4] of the same molecule?
A: 95%

Q: And the pest or weed control at 1 µg/cm2, 1 µg/cm2 [4]?
A: 95%

Q: What about the pest or weed control at 100 ppm [6] of the same molecule?
A: ≥ 70%

Q: What about the pest or weed control at 100 ppm [7] of the same molecule?
A: ≥ 70%

Q: And the pest or weed control at 100 ppm [8]?
A: ≥ 70%

Q: Which results are given for `CN(C(=O)c1ccc([N+](=O)[O-])cc1)c1cccc(C(=O)Nc2c(I)cc(C(F)(C(F)(F)F)C(F)(F)F)cc2C(F)(F)F)c1F` [Compound 54]?
A: pest or weed control at 32 ng [1]: 100%; pest or weed control at 0.00016 mg [1]: 100%; pest or weed control at 0.0008 mg [1]: 100%; pest or weed control at 0.2 µg/cm2, 0.2 µg/cm2 [2]: 90%; pest or weed control at 1 µg/cm2, 1 µg/cm2 [2]: 90%; pest or weed control at 0.032 ppm [3]: 95%; pest or weed control at 0.16 ppm [3]: 95%; pest or weed control at 0.8 ppm [3]: 95%; pest or weed control at 4 ppm [3]: 95%; pest or weed control at 0.04 µg/cm2, 0.04 µg/cm2 [4]: 95%; pest or weed control at 0.2 µg/cm2, 0.2 µg/cm2 [4]: 95%; pest or weed control at 1 µg/cm2, 1 µg/cm2 [4]: 95%; pest or weed control at 0.2 µg/cm2, 0.2 µg/cm2 [5]: 90%; pest or weed control at 1 µg/cm2, 1 µg/cm2 [5]: 90%; pest or weed control at 100 ppm [6]: ≥ 70%; pest or weed control at 100 ppm [7]: ≥ 70%; pest or weed control at 100 ppm [8]: ≥ 70%

Q: Which results are given for `Cc1ccc(C(=O)N(C)c2cccc(C(=O)Nc3c(I)cc(C(F)(C(F)(F)F)C(F)(F)F)cc3C(F)(F)F)c2F)cc1` [Compound 58]?
A: pest or weed control at 32 ng [1]: 100%; pest or weed control at 0.00016 mg [1]: 100%; pest or weed control at 0.0008 mg [1]: 100%; pest or weed control at 0.2 µg/cm2, 0.2 µg/cm2 ([9]; dose 0.2 μg/cm^2, 48 h): 90%; pest or weed control at 1 µg/cm2, 1 µg/cm2 [9]: 90%; pest or weed control at 0.8 ppm [3]: 95%; pest or weed control at 4 ppm [3]: 95%; pest or weed control at 0.04 µg/cm2, 0.04 µg/cm2 [4]: 95%; pest or weed control at 0.2 µg/cm2, 0.2 µg/cm2 [4]: 95%; pest or weed control at 1 µg/cm2, 1 µg/cm2 [4]: 95%; pest or weed control at 1 µg/cm2, 1 µg/cm2 [5]: 90%; pest or weed control at 100 ppm [6]: ≥ 70%; pest or weed control at 100 ppm [7]: ≥ 70%; pest or weed control at 100 ppm [8]: ≥ 70%

Q: Which results are given for `CN(C(=O)c1ccc(C(F)(F)F)cc1)c1cccc(C(=O)Nc2c(I)cc(C(F)(C(F)(F)F)C(F)(F)F)cc2C(F)(F)F)c1F` [Compound 59]?
A: pest or weed control at 32 ng [1]: 100%; pest or weed control at 0.00016 mg [1]: 100%; pest or weed control at 0.0008 mg [1]: 100%; pest or weed control at 1 µg/cm2, 1 µg/cm2 [9]: 90%; pest or weed control at 0.16 ppm [3]: 95%; pest or weed control at 0.8 ppm [3]: 95%; pest or weed control at 4 ppm [3]: 95%; pest or weed control at 0.2 µg/cm2, 0.2 µg/cm2 [4]: 95%; pest or weed control at 1 µg/cm2, 1 µg/cm2 [4]: 95%; pest or weed control at 0.2 µg/cm2, 0.2 µg/cm2 [5]: 90%; pest or weed control at 1 µg/cm2, 1 µg/cm2 [5]: 90%; pest or weed control at 100 ppm [6]: ≥ 70%; pest or weed control at 100 ppm [7]: ≥ 70%; pest or weed control at 100 ppm [8]: ≥ 70%
